One series deals with CYP2C9 (Homo sapiens, UniProt P11712). Briefly: CYP450 inhibition. Format: in vitro ADME. Conditions: read-out: CYP450 Inhibition, 2C9.
Series [1] concerns human sperm hyperactivated motility. Briefly: Human sperm motility by CASA. Format: cell-based. The settings on record: for inhibition of human sperm hyperactivated motility, incubation: 10 μM during 2 h in capacitation media; for inhibition of human sperm hyperactivated motility, acute / inhibition at 10 µM: 10 μM for 1 min after 2 h capacitation; for effect on progressive motility of human sperm / effect on total motility of human sperm: 10 μM, acute; for inhibition at 10 µM: Homo sapiens, Sperm, read-out: inhibition of human sperm hyperactivated motility, acute. On the procedure: Human sperm samples were obtained by masturbation from deidentified patients after 3 to 5 days of abstinence. The Washington University Fertility and Reproductive Medicine Center confirmed that they met normal semen parameters according to the World Health Organization (≥15 million sperm per mL, ≥40% total motility, ≥32% progressive motility). Samples were allowed to liquefy for 1 h at room temperature. Sperm were purified by the swim-up method as previously described. , Briefly, within 2 h of production, sperm were allowed to swim up in noncommercial human tubular fluid medium (HTF; 98 mM NaCl, 4.7 mM KCl, 0.4 mM KH2PO4, 2 mM CaCl2, 0.2 mM MgSO4, 20 mM HEPES, 3 mM glucose, 21 mM lactic acid, 0.3 mM sodium pyruvate, pH adjusted to 7.4 with NaOH, 285 mmol/kg osmolarity measured with a VAPRO Vapor Pressure Osmometer 5600, ELITechGroup, Belgium) for 1 h at 37 °C without CO2.
Human sperm collected by swim-up were incubated in capacitating media (HTF + 5 mg/mL of BSA + 25 mM NaHCO3 for 2 h). After this incubation hyperactivated motility was measured by computer-assisted sperm analysis (CASA) as previously described. Briefly, 3 μL of sperm suspension was loaded in a 20-μm Leja standard count four-chamber slide. Motility was measured with a HTR-CEROS II v.1.7 (Hamilton-Thorne Research). Sperm were classified as hyperactivated if they met the following criteria: curvilinear velocity (VCL) > 150 μm/s, lateral head displacement (ALH) > 7.0 μm, and linearity coefficient (LIN) < 50%. For acute inhibition experiments, 10 μM of our compound of interest was added for 1 min prior to recording motility. For inhibitor incubation experiments, the compound of interest or DMSO was added during the 2 h incubation in capacitating media.

Series [2] in a line: Multispecies hepatocyte MetID. Format: in vitro ADME, human. The settings on record: 4 h incubation with hepatocytes, 10 μM. As for the experimental part: Metabolites were identified after preincubating each compound at a 10 μM final concentration with 2.5 × 10^5 hepatocytes from human, dog, cynomolgus monkey, and rat in 200 μL of Optiincubate buffer (BioIVT, Westbury, NY). […] After centrifugation, 60 μL of the supernatant was transferred to 60 μL of water for LC-MS analysis. Samples were analyzed using a Thermo Scientific Vanquish UHPLC consisting of a VH-P10-A pump, a VH-A10-A sampler module, a VH-C10-A column compartment, and the VF-D11-A UV detector coupled to an Orbitrap Fusion Lumos instrument with UVPD. A binary solvent system consisting of (A) water with 0.1% formic acid and (B) acetonitrile with 0.1% formic acid was used with an Accucore Vanquish C18+, 2.1 mm × 100 mm, 1.5 μm, UHPLC column maintained at 40 °C. The data generated by data-dependent acquisition via normal acquisition and AcquireX were processed manually with Thermo Scientific FreeStyle and assisted by Compound Discoverer 3.3.1.111 to aid in the structural assignments.

The nature of series [3]: Multispecies hepatocyte MetID. Format: in vitro ADME, mouse. Conditions: 4 h incubation with hepatocytes, 10 μM.
Series [4] concerns Calcium Channel L-Type, Benzothiazepine. Briefly: LeadProfilingScreen radioligand binding. Set-up: species or system rat.
In the next series the target is Dopamine D2S (Homo sapiens, UniProt P14416). Nature of the series: LeadProfilingScreen radioligand binding.
Another series addresses Dopamine D4.4 (Homo sapiens, UniProt P21917). Nature of the series: LeadProfilingScreen radioligand binding.
Series [5] addresses Epidermal Growth Factor (EGF) (Homo sapiens, UniProt P00533). Briefly: LeadProfilingScreen radioligand binding.
The subject of another series is Glutamate, Kainate. Nature of the series: LeadProfilingScreen radioligand binding. The arrangement: species or system rat.
In another series the target is Glutamate, NMDA, Glycine (Rattus norvegicus, UniProt P35439). Nature of the series: LeadProfilingScreen radioligand binding.
Series [6] deals with Glutamate, NMDA, Phencyclidine. Briefly: LeadProfilingScreen radioligand binding. Set-up: species or system rat.
The next series has as its target Histamine H2 (Homo sapiens, UniProt P25021). Nature of the series: LeadProfilingScreen radioligand binding.
The next series addresses Muscarinic M3 (Homo sapiens, UniProt P20309). Nature of the series: LeadProfilingScreen radioligand binding.
In series [7] the target is Nicotinic Acetylcholine α1, Bungarotoxin (Homo sapiens, UniProt P02708+P07510+Q07001). Briefly: biochemical. The settings on record: read-out: % inhibition at 10 μM. Type of series: binding.
The target in another series is Opiate δ1 (OP1, DOP) (Homo sapiens, UniProt P41143). Briefly: LeadProfilingScreen radioligand binding.
In the next series the target is Sigma σ1 (Homo sapiens, UniProt Q99720). Briefly: LeadProfilingScreen radioligand binding.
Series [8] has as its target Transporter, Dopamine (DAT) (Homo sapiens, UniProt Q01959). Briefly: LeadProfilingScreen radioligand binding.
For the next series, the target named is Transporter, GABA (Rattus norvegicus, UniProt P23978). Briefly: LeadProfilingScreen radioligand binding.

Several values for one entry are separate records, joined by “and”; a condition that tells them apart may be missing. Equal entries are not always repeated.

Chain of CYP2C9 (P11712 whole entry, species assumed): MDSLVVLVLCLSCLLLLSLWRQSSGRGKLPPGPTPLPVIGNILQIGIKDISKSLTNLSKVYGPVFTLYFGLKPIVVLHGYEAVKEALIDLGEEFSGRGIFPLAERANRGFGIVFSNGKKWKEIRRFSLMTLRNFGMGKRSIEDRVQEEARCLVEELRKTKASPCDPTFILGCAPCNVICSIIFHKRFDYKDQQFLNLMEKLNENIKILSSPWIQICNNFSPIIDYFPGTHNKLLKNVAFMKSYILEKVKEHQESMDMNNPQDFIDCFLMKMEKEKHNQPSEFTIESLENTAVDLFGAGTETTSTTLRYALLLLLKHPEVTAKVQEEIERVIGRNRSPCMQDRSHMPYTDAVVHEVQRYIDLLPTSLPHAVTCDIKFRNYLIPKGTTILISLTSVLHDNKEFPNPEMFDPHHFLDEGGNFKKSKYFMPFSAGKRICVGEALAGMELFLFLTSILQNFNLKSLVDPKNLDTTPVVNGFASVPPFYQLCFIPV
Chain of Sigma σ1 (Q99720 whole entry): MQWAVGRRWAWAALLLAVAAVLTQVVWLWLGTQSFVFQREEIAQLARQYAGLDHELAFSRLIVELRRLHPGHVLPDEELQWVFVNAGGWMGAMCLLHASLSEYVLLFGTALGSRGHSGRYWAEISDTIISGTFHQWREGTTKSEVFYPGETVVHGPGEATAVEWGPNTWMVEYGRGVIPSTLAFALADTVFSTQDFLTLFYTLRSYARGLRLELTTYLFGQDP
Chain of Epidermal Growth Factor (EGF) (P00533 25-1210): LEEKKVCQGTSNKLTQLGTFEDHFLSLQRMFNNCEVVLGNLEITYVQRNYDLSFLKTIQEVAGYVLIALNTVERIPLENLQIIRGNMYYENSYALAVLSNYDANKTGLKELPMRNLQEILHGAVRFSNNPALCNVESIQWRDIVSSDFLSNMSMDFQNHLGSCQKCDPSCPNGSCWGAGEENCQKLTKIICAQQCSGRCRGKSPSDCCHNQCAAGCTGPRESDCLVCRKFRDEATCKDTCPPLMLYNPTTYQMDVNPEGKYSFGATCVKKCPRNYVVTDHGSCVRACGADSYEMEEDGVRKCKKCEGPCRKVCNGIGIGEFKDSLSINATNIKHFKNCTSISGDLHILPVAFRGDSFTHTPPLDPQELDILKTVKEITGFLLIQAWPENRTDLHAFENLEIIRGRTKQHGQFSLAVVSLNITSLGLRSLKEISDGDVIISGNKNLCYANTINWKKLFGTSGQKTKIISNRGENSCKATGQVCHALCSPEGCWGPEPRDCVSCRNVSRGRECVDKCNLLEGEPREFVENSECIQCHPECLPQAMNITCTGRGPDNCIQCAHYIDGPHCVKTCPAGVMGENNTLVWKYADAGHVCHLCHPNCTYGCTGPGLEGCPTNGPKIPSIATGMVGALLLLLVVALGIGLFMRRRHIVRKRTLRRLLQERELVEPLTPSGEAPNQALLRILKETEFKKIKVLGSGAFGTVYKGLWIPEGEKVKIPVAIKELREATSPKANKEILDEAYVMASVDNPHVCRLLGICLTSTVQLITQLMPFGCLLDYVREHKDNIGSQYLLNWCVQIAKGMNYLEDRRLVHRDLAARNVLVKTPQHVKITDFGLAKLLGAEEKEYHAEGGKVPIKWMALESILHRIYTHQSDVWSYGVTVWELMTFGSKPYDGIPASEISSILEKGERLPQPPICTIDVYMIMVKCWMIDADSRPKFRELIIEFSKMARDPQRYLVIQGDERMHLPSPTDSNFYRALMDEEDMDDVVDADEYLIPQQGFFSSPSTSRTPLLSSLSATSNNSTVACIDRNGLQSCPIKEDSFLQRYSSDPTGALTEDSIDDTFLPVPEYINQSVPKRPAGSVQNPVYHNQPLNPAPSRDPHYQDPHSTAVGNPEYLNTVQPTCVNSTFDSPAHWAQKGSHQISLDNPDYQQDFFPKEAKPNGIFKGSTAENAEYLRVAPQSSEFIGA
Chain of Muscarinic M3 (P20309 whole entry): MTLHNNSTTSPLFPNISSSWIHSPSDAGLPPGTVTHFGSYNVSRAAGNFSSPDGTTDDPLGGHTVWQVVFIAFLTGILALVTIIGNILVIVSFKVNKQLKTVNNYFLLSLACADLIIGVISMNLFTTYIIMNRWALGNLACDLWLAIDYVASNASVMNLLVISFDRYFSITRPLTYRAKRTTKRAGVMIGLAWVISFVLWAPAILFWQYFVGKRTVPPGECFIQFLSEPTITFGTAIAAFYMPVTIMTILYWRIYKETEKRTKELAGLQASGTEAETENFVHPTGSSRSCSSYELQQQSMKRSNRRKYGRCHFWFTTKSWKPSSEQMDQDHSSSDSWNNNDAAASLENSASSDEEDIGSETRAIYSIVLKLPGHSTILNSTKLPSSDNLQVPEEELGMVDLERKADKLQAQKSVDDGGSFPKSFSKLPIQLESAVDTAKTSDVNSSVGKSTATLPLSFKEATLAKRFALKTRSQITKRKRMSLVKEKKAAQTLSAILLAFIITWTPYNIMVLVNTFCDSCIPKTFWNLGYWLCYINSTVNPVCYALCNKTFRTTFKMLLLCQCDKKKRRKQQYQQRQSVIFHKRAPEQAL
Chain of Dopamine D2S (P14416 1-414 isoform P14416-2): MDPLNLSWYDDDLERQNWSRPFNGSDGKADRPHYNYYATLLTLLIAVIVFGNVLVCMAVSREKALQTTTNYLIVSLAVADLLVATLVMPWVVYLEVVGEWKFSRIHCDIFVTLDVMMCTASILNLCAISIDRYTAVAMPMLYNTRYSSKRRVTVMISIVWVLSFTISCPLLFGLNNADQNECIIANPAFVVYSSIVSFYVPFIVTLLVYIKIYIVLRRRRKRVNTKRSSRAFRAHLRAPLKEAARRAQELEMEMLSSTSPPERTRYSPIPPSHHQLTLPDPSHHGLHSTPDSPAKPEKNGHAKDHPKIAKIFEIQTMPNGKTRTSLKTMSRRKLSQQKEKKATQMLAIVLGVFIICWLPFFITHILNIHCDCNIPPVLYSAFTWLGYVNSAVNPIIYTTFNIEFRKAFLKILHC
Chain of Glutamate, NMDA, Glycine (P35439 394-800 limits assumed): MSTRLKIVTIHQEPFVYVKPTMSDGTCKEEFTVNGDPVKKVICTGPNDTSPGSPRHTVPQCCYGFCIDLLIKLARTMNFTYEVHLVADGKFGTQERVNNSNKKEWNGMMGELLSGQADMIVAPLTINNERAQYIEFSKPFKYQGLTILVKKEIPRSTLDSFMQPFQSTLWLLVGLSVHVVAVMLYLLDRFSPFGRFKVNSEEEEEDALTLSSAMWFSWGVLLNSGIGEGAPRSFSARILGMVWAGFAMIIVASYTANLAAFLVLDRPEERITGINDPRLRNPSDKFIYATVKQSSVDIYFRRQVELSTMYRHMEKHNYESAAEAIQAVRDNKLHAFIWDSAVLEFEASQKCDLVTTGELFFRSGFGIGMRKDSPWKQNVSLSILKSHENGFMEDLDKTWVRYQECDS
Chain of Histamine H2 (P25021 whole entry): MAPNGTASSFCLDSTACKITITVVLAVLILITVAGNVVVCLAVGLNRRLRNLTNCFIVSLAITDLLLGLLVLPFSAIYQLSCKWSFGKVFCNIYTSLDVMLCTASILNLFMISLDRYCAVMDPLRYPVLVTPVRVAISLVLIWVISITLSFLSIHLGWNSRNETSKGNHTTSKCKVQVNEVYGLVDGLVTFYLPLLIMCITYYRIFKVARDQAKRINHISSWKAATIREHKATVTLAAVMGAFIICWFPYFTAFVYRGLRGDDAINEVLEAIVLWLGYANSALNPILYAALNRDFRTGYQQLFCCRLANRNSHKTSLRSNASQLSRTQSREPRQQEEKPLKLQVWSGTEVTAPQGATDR
Chain of Opiate δ1 (OP1, DOP) (P41143 whole entry): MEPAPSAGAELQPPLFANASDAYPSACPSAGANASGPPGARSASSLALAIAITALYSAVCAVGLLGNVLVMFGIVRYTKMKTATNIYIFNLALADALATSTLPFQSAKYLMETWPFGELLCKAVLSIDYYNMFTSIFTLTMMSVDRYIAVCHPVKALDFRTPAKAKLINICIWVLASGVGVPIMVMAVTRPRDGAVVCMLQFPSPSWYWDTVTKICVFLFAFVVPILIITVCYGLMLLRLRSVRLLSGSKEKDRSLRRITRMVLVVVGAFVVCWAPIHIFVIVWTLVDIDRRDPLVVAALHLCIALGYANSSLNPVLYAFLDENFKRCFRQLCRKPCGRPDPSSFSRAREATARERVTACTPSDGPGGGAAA
Chain of Transporter, Dopamine (DAT) (Q01959 whole entry): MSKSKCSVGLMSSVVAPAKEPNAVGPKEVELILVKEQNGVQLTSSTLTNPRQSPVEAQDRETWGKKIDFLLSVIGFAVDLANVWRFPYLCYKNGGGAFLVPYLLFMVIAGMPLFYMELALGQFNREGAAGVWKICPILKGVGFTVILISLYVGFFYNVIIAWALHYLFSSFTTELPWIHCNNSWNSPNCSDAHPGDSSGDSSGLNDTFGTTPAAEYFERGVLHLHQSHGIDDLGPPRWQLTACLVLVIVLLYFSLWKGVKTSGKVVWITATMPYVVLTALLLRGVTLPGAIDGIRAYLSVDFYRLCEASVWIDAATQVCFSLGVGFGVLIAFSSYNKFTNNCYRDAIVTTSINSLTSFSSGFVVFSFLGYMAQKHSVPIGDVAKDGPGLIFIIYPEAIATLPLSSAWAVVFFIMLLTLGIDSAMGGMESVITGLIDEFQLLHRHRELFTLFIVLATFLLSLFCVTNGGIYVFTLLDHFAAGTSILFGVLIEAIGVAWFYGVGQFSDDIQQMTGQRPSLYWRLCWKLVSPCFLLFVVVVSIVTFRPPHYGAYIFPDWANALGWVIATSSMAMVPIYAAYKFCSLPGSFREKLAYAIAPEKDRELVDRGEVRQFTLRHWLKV

The inhibition is the drop in the measured response relative to a control, in per cent. One may read the % inhibition as the change of the read-out against control, counted positive when it falls. For `Cc1cc(Cl)cc2sc(O[C@H]3CCN(C(=O)CCCS(=O)(=O)c4cccc(Br)c4)C[C@H]3F)nc12` [VU6047606], the IC50 on CYP2C9 is more than 30 µM. Moreover, the “inhibition of human sperm hyperactivated motility, incubation” value in [1] came out at 61%. In addition, the “inhibition of human sperm hyperactivated motility, acute” value in [1] is given as more than 70%. The “effect on progressive motility of human sperm” value in series [1] was “without changing”. Also, in series [1], the “effect on total motility of human sperm” value is “without changing”. For the same compound, the inhibition at 10 µM is 71% in [1]; -7% on Dopamine D2S; -8% at Dopamine D4.4; 2% in series [5]; -1% on Glutamate, NMDA, Glycine; -24% at Histamine H2. In addition, the inhibition at 10 µM stood at 13% on Muscarinic M3; 5% in series [7]; 12% at Opiate δ1 (OP1, DOP); 62% on Sigma σ1; 18% in [8]; 4% at Transporter, GABA. The “% of Parent Related Material, Human” value in series [2] is 91.66% and > 82%. In addition, the “% of Parent Related Material, Mouse” value in series [3] was 84.99% and > 82%. Also, the “% inhibition at 10 μM” value in [4] is given as 49%; with Glutamate, Kainate it was -6%; in series [6], 6%.
Consider `O=C(c1ccc(OCc2ccc(OC(F)(F)F)cc2)cc1)N1CCN(c2ccc(C(F)(F)F)cn2)CC1` [VU6032735], for which the IC50 on CYP2C9 was more than 30 µM. For the same compound, the “inhibition of human sperm hyperactivated motility, incubation” value in [1] stood at 50%. In addition, in [1], the “inhibition of human sperm hyperactivated motility, acute” value is reported as more than 70%. The “effect on progressive motility of human sperm” value in [1] was “without changing”. The “effect on total motility of human sperm” value in [1] is reported as “without changing”. Besides, the inhibition at 10 µM in [1] was 76%; at Dopamine D2S, -2%; on Dopamine D4.4 it was -5%; in [5], 5%; on Glutamate, NMDA, Glycine it was -3%; on Histamine H2, 6%. The inhibition at 10 µM on Muscarinic M3 is 7%; in [7], 2%; at Opiate δ1 (OP1, DOP), 7%; at Sigma σ1, -3%; in [8], 26%; at Transporter, GABA, -4%. In addition, in [2], the “% of Parent Related Material, Human” value is reported as more than 98%. In addition, the “% of Parent Related Material, Mouse” value in [3] is given as more than 98%. Further, the “% inhibition at 10 μM” value in series [4] was 67%; with Glutamate, Kainate it was -4%; in series [6], 8%.

The values above are taken from paper PMC12441834, “Highly Potent and Subtype-Selective Sperm-Specific Potassium Channel SLO3 Inhibitors Display High Tissue Exposure in the Murine Female Reproductive Tract” (ACS Pharmacology & Translational Science, 2025).
